Legend:
[1] = Half-life of Compound 128 in vivo
Method: In myeloproliferative disorders, the de novo resynthesis rate of BTK following covalent inhibition by Compound 128 is greater than the de novo BTK resynthesis rate in B-cell malignancies. […] The short half-life of Compound 128 (1 to 2 hours in vivo), coupled with the faster BTK turnover in myelofibrosis in particular, and myeloproliferative disorders in general, requires higher BID dosing. Thus, a 300 mg BID dose in subjects with myelofibrosis should ensure maximal BTK occupancy at trough levels of this drug.

[2] = target: T1, BTK (Homo sapiens, UniProt Q06187); assay: BTK resynthesis rate in cells after saturating exposure to and washout of Compound 128 (free BTK by ELISA); type: cell-based
T1 construct: endogenous in cells; host or cells: RAMOS B cells, HEL-92, MV-411, MOLM-13, THP-1, UKE-1, primary myeloid cells/monocytes from a healthy donor, primary cells from AML patients
T1 sequence (Q06187 whole entry): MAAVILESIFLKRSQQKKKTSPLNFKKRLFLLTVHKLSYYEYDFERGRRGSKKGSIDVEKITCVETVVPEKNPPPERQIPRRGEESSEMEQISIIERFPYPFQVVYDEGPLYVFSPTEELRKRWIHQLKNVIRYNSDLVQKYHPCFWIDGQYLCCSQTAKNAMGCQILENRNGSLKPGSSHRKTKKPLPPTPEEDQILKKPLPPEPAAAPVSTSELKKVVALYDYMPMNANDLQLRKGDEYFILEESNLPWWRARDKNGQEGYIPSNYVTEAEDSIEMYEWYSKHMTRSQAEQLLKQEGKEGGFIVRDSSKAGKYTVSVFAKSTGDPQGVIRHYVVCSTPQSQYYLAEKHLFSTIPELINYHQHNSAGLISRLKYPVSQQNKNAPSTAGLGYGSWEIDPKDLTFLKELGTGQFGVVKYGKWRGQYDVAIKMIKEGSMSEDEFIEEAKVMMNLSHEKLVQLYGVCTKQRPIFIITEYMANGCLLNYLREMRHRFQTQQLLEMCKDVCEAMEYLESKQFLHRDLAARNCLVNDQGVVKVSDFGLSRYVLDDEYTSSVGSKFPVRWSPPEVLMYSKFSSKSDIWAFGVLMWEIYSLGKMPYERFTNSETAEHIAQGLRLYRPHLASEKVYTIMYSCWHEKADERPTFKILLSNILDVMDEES
Method: Various cell types and tissues show different rates of BTK synthesis (see FIG. 1). Cells were cultured with a saturating concentration of Compound 128 to occupy all BTK protein (0% free BTK). This was followed by a washout of Compound 128 and culturing for up to 48 hours with no BTK inhibitor to allow the cells to synthesize new BTK protein. The rate of BTK protein synthesis was determined by measuring the free BTK by ELISA at different time points. RAMOS B cells resynthesized BTK at a rate of only 26% per day, while Hel-92 and MV-411 cells resynthesized BTK at a rate of over 100% per day. […] The rate of BTK resynthesis in naïve AML patients was roughly 30% per day, with low inter-patient variability.
BTK resynthesis in each cell type was measured as described in Example 1. The left graph (see FIG. 2) depicts the BTK resynthesis rate in monocytes from a normal individual following a two hour exposure to Compound 128. The BTK resynthesis rate was determined to be 61% per day in normal monocytes. The right graph (see FIG. 2) depicts the BTK resynthesis rate in the presence of BTK inhibitor Compound 128 in two different cell lines.
BTK resynthesis was measured in additional AML and MF cell types as described in Example 1 following a one hour exposure to Compound 128 (see FIG. 3). MOLM-13 cells resynthesized BTK at a rate of only 21% per day, while THP-1 cells resynthesized BTK at a rate of 84% per day and UKE-1 cells resynthesized BTK at a rate of over 100% per day.

## C=CC(=O)N1CCC(F)(CNc2ncnc(N)c2-c2ccc(Oc3ccccc3)cc2)CC1 [Compound 128, 1-(4-(((6-amino-5-(4-phenoxyphenyl)pyrimidin-4-yl)amino)methyl)-4-fluoropiperidin-1-yl)prop-2-en-1-one]
[1]
  half-life: 1 to 2 h
[2]; HEL-92 (myelofibrosis) cells
  initial BTK resynthesis rate: 43 % per day
[2]; HEL-92 (myelofibrosis) cells, repeated exposure
  BTK resynthesis rate after repeated exposure: 28 % per day
[2]; Hel-92 cells, after 4 days of treatment
  change of BTK resynthesis rate after treatment: decreased BTK resynthesis rate
[2]; Hel-92 cells, saturating concentration, washout, culture up to 48 hours
  BTK resynthesis rate: over 100 % per day
[2]; MOLM-13 cells, one hour exposure
  BTK resynthesis rate: 21 % per day
[2]; MV-411 cells (AML), continued exposure for seven days
  BTK resynthesis rate after continued exposure: 44 % per day
[2]; MV-411 cells (AML)
  initial BTK resynthesis rate: 83 % per day
[2]; MV-411 cells, after 7 days of treatment
  change of BTK resynthesis rate after treatment: decreased BTK resynthesis rate
[2]; MV-411 cells, saturating concentration, washout, culture up to 48 hours
  BTK resynthesis rate: over 100 % per day
[2]; RAMOS B cells, saturating concentration, washout, culture up to 48 hours
  BTK resynthesis rate: 26 % per day
[2]; THP-1 cells, one hour exposure
  BTK resynthesis rate: 84 % per day
[2]; UKE-1 cells, one hour exposure
  BTK resynthesis rate: over 100 % per day
[2]; culture of primary myeloid cells from a healthy donor
  BTK resynthesis rate: 67 % per day
[2]; cultures of primary cells from patients with relapsed AML
  BTK resynthesis rate: 57 % per day
[2]; following covalent inhibition by Compound 128
  de novo BTK resynthesis rate, HEL-92 cells compared to Ramos B-lymphoblastoid cell line: four-fold higher
[2]; monocytes from a normal individual, two hour exposure
  BTK resynthesis rate: 61 % per day
[2]; naïve AML patients
  BTK resynthesis rate: roughly 30 % per day

Reference: patent US20250064805A1, “Methods of Treating Myeloproliferative Disorders Based on BTK Occupancy & Resynthesis Rate” (Telios Pharma Inc., priority 2022, published 2025)
